Measured values as given in ChEMBL document CHEMBL2448809, “UCSF DeRisi Lab MMV Box Apicoplast Screening”.

Test system: Plasmodium falciparum
Experiment: MMV: Compounds (1uM) were screened in a 72hr growth assay monitored by flow cytometry both in the presence and absence of supplemental isopentenyl pyrophosphate (IPP) 200uM. Compounds which fail to show anti-malarial activity when chemically rescued by IPP are therefore specific to the apicoplast. The values are expressed as the ratio of the corresponding activity with and without IPP, respectively.
Format: functional, W2

Compared with `O=C(Nc1ccc(Cl)c(Cl)c1)Nc1ccc(Cl)c(Cl)c1`, `OCCNc1nc(Nc2ccc(Cl)c(Cl)c2)nc2ccccc12` is higher in Ratio: 1.022 for the first, 1.062 for the second.

Compared with `COc1ccc(Nc2nc(N/N=C/c3ccc(O)cc3)nc(Nc3ccc([N+](=O)[O-])cc3)n2)cc1`, `Brc1ccc(Nc2nc3ccccc3nc2Nc2ccc(Br)cc2)cc1` is lower in Ratio: 1.812 for the first, 0.8871 for the second.

Compared with `COc1ccc(-c2cc3c(nn2)-c2ccccc2C3=O)cc1`, `COc1ccc(Nc2cc(C)nc(NCc3ccccc3)n2)cc1` is lower in Ratio: 1.105 for the first, 0.7294 for the second.

First: COc1ccc(C2c3ccc4ccccc4c3Oc3ncn(CCCN(C)C)c(=N)c32)cc1 (configuration not stated)
Second: COc1ccc(C2c3ccc4ccccc4c3Oc3ncn(CCCn4ccnc4)c(=N)c32)cc1OC (configuration not stated)
The Ratio of the first is higher: 1.078 for the first, 1.051 for the second.

First: N=c1n(CCN2CCCCC2)c2ccccc2n1CC(=O)c1ccc(Cl)c(Cl)c1
Second: O=C(CCc1ccccc1)c1ccccc1OCC(O)CN1CCCCC1 (configuration not stated)
The Ratio of the first is higher: 1.14 for the first, 1 for the second.

Compared with `Nc1nc(Nc2cccc(F)c2)nc2ccccc12`, `COc1cccc(Nc2nc(N)c3ccccc3n2)c1.Cl` is lower in Ratio: 1.176 for the first, 0.9815 for the second.

First: COc1ccc(/C=C2/SC(=Nc3ccccc3)NC2=O)cc1
Second: COc1ccc(C=C2SC(Nc3ccc(F)cc3)=NC2=O)c(OC)c1
The Ratio of the first is higher: 1.136 for the first, 0.9324 for the second.

First: c1ccc(/C2=N/c3ccccc3/N=C(/c3ccccc3)c3ccccc32)cc1
Second: OC1=C2C(=Nc3ccccc3SC2c2ccccc2)c2ccccc21 (configuration not stated)
The Ratio of the first is lower: 0.807 for the first, 1.213 for the second.

Going from `COc1ccc(-c2nc(N3CCN(C(=O)C4CCCCC4)CC3)c3c4c(sc3n2)CCCC4)cc1` to `CCOC(=O)c1cnc2ccc(OC)cc2c1Nc1ccc(N2CCN(C)CC2)cc1`, the Ratio falls from 1.015 to 0.9667.

First: O=C(NC1CCN(Cc2ccccc2)CC1)c1cc2nc(-c3ccc(Cl)s3)cc(C(F)(F)F)n2n1
Second: Cc1sc(NC(=O)c2ccco2)c(C(c2cccnc2)N2CCC(Cc3ccccc3)CC2)c1C (configuration not stated)
The Ratio of the first is lower: 0.6993 for the first, 1.123 for the second.

Compared with `Cc1sc(NC(=O)c2ccccc2)c(C(c2cccs2)N2CCN(c3ccccc3)CC2)c1C` (configuration not stated), `N#Cc1nc(Cc2cccc3ccccc23)oc1N1CCN(C(c2ccccc2)c2ccccc2)CC1` is higher in Ratio: 0.9412 for the first, 1.062 for the second.

Going from `CCOC(=O)c1c(C)n(-c2ccccc2)c2ccc(OC(=O)c3cc(OC)c(OC)c(OC)c3)cc12` to `COc1cc(C(=O)ON=C(N)Cc2cccc3ccccc23)cc(OC)c1OC`, the Ratio rises from 0.9 to 1.265.

Going from `COc1cc(C(=O)Nc2nc3c(cc4c5c(cccc53)CC4)s2)cc(OC)c1OC` to `COc1cc(C(=O)Nc2ccc(-c3nc4ccccc4[nH]3)cc2)cc(OC)c1OC`, the Ratio falls from 0.8259 to 0.6522.

Going from `COc1ccc(CCN2C(=O)c3[nH]nc(-c4cc(Cl)c(C)cc4O)c3C2c2ccccc2F)cc1` (configuration not stated) to `COc1ccc(CNC(=O)c2cc3c(=O)n4ccccc4nc3n(CCc3ccccc3)c2=N)cc1`, the Ratio rises from 0.7742 to 0.8046.

Going from `O=C(NNc1cc(N2CCCC2)nc(N2CCCC2)n1)c1ccccc1` to `CN1CCN(c2nc(Nc3ccc(O)cc3)nc3ccccc23)CC1.Cl`, the Ratio falls from 0.9508 to 0.8636.

First: COC(=O)c1ccc(Cl)c2c1C1C=CCC1C(c1cccc3ccccc13)N2 (configuration not stated)
Second: Cn1c(C(=O)c2cccc3ccccc23)nc2ccccc21
The Ratio of the first is higher: 1.081 for the first, 0.8689 for the second.

Going from `CN(N=O)C1=C(NC2CCCCC2)C(=O)c2ccccc2C1=O` to `CCCn1c(=N)c(C(=O)NC2CCCCC2)cc2c(=O)n3cccc(C)c3nc21`, the Ratio falls from 1.071 to 0.8.

Going from `CCOc1ccc(N2C(N)=NC(N)=NC2(C)C)cc1.Cl` to `CCOc1ccc(Nc2ccnc3cc(Cl)ccc23)cc1`, the Ratio rises from 0.7815 to 0.8831.

Compared with `Cc1ccc(C(=O)c2oc3ccc4c(C)cc(=O)oc4c3c2C)cc1`, `Br.Cc1ccc(C)c(-c2csc(Nc3ccc(C)c(C)c3)n2)c1` is higher in Ratio: 1.018 for the first, 1.048 for the second.

Compared with `COc1ccc(CN2CCCC(C(=O)c3ccc(C(F)(F)F)cc3)C2)c(O)c1` (configuration not stated), `COc1ccc(C(O)(CCC(C)C)C(CN2CCOCC2)c2ccc(Cl)cc2)cc1.Cl` (configuration not stated) is higher in Ratio: 0.8852 for the first, 1.06 for the second.

Going from `COC(=O)c1ccc(C2C3=C(O)CC(c4ccc(F)cc4)CC3=Nc3ccccc3N2C(=O)c2ccccc2)cc1` (configuration not stated) to `CC(C)(C)c1ccc(C2CC3=Nc4ccccc4N(C(=O)c4ccccc4Cl)C(c4ccc(F)cc4)C3=C(O)C2)cc1` (configuration not stated), the Ratio rises from 0.9016 to 1.

Going from `CCCCCCc1cc2cc(-c3csc(C=Cc4ccccc4)n3)c(=O)oc2cc1O` to `CCCCCCc1cc2cc(-c3nc4ccccc4[nH]3)c(=Nc3ccccc3C)oc2cc1O`, the Ratio rises from 0.86 to 0.9685.

First: O=C(CCl)NCCOc1ccc(Cl)cc1Cl
Second: COc1cc(CNCCc2ccc(Cl)cc2)cc(OC)c1O
The Ratio of the first is higher: 1.041 for the first, 0.9459 for the second.

First: Oc1ccc(-c2nc(-c3ccc4oc5ccc(-c6[nH]c(-c7ccc(O)cc7)nc6-c6ccccc6)cc5c4c3)c(-c3ccccc3)[nH]2)cc1
Second: COc1cc(-c2nc(-c3ccc(Sc4ccccc4)cc3)c(-c3ccccc3)[nH]2)cc(OC)c1O
The Ratio of the first is lower: 0.8182 for the first, 1.071 for the second.

First: O=C(NC1CCCCC1)C(c1cccs1)N(CCc1ccccc1)C(=O)c1ccco1 (configuration not stated)
Second: O=C(Cc1ccccc1)NC(c1ccc(Cl)cc1)c1c(O)ccc2ccccc12 (configuration not stated)
The Ratio of the first is higher: 0.9135 for the first, 0.873 for the second.

Going from `CC(Oc1ccc(NC(=O)c2cccs2)cc1)C(=O)c1ccc(Cl)cc1` (configuration not stated) to `O=C(Nc1ccc(-c2nc3cc(NC(=O)c4ccc(Cl)cc4)ccc3[nH]2)cc1)c1ccc(Cl)cc1`, the Ratio falls from 1 to 0.9036.

Compared with `CCOc1ccc(CN2CCN(CC(O)COc3ccc(OCC(O)CN4CCN(Cc5ccc(OCC)cc5)CC4)cc3)CC2)cc1` (configuration not stated), `Oc1ccc(Br)cc1CN1CCN(Cc2ccc(Cl)cc2)CC1` is lower in Ratio: 0.9863 for the first, 0.9138 for the second.

Compared with `CCCCNc1nc(NC(C)(C)C)nc(NC(C)(C)C)n1`, `COc1ccc(C(=O)C(CCC(CNC(C)(C)C)C(=O)c2ccc(OC)cc2)CNC(C)(C)C)cc1` (configuration not stated) is lower in Ratio: 1.02 for the first, 0.9453 for the second.

First: O=C(NC1CCN(Cc2ccccc2)CC1)c1cc(C(=O)NC2CCN(Cc3ccccc3)CC2)cc(C(=O)NC2CCN(Cc3ccccc3)CC2)c1
Second: c1ccc(CNc2nc(Nc3ccccc3)nc3ccccc23)cc1
The Ratio of the first is higher: 1.119 for the first, 1 for the second.

Going from `COc1ccc(CCn2c(=N)c(C(=O)NCc3cccnc3)cc3c(=O)n4cccc(C)c4nc32)cc1` to `COc1ccc2sc(N(Cc3cccnc3)C(=O)c3ccc(C#N)cc3)nc2c1`, the Ratio falls from 0.875 to 0.8548.

Going from `CC(=O)c1sc(NC(=O)Nc2ccc(C)cc2C)nc1C` to `Cc1cc(N(C)C)nc(Nc2ccc(NC(=O)Nc3ccccc3)cc2)n1`, the Ratio rises from 0.843 to 1.017.

First: COc1ccc(-c2cn3c(C(=O)Nc4ccccc4Cl)c(-c4ccccc4)c4c3n2CCCC4)cc1
Second: COc1ccc(C(=O)NC(c2ccccc2Cl)c2cc(Cl)c3cccnc3c2O)cc1 (configuration not stated)
The Ratio of the first is lower: 1.057 for the first, 1.365 for the second.

Compared with `Cl.Cn1c(=O)n(C)c2cc(CNCCNc3ccnc4cc(Cl)ccc34)ccc21`, `CCN(CC)CCCNc1ccnc2cc3ccccc3cc12` is lower in Ratio: 1.09 for the first, 0.9344 for the second.

Compared with `Cc1cc(Nc2ccc(OCc3ccccc3)cc2)nc2cc(O)ccc12`, `Cc1ccc(-c2nc3ccccc3o2)cc1NCc1cc(Cc2ccccc2)ccc1O` is higher in Ratio: 0.8026 for the first, 1.167 for the second.

Going from `CCN(CC)CCNc1ccnc2cc3ccccc3cc12.O=P(O)(O)O` to `CCOC(=O)c1cnc2ccc(OC)cc2c1NCc1ccccc1`, the Ratio falls from 1.056 to 0.7154.

Going from `CCOc1ccc2nc(C)cc(Nc3ccc(N(C)C)cc3)c2c1.Cl` to `CCOc1ccc2nc(C)cc(Nc3ccc(Br)cc3)c2c1`, the Ratio falls from 1.135 to 1.038.

First: N=c1c2ccccc2nnn1-c1cccc(C(F)(F)F)c1
Second: Cc1ccc(Nc2nc(N)c3ccccc3n2)cc1Cl
The Ratio of the first is higher: 1.0625 for the first, 0.9206 for the second.

Compared with `Oc1ccc2ccccc2c1CNc1nc2ccccc2[nH]1`, `O=C(Nc1ccc(-c2nc3ccccc3[nH]2)cc1)c1ccc(Cl)c(Cl)c1` is higher in Ratio: 0.578 for the first, 0.9295 for the second.

Compared with `O=C1c2ccc3c4c(ccc(c24)C(=O)N1CCCCO)C(=O)N(CCCCO)C3=O`, `CCOC(=O)c1c[nH]c2c(CC)cccc2c1=O` is lower in Ratio: 1.047 for the first, 0.8986 for the second.

First: OC(Cn1nnc2ccccc21)Cn1c2ccc(Br)cc2c2cc(Br)ccc21 (configuration not stated)
Second: OC(CNC1CCCCC1)Cn1c2ccc(I)cc2c2cc(I)ccc21 (configuration not stated)
The Ratio of the first is lower: 0.9531 for the first, 1.043 for the second.

Compared with `Nc1ccc(-c2nc3cc(Oc4ccc(Oc5ccc6[nH]c(-c7ccc(N)cc7)nc6c5)cc4)ccc3[nH]2)cc1`, `O=C(Nc1ccc(-c2nc3cc4ccccc4cc3[nH]2)cc1)c1cccc(Br)c1` is higher in Ratio: 1.143 for the first, 1.254 for the second.

Going from `Cc1ccccc1OCCSc1nc2ccc(NC(=O)c3cccs3)cc2s1` to `Cc1ccc(F)cc1NC(=O)c1cc(Cl)ccc1Nc1ccccc1`, the Ratio rises from 0.9467 to 1.055.

Compared with `COc1ccccc1C(=O)ON=C(N)Cc1cccc2ccccc12`, `COc1cc(-c2nc(-c3ccccc3)c(-c3ccccc3)[nH]2)cc(OC)c1O` is lower in Ratio: 1.06 for the first, 1.031 for the second.

Going from `CCOc1cc2c(cc1OCC)C(c1cc(Cl)ccc1O)NCC2` (configuration not stated) to `CCCOCc1cc(CN2CCN(c3cccc(Cl)c3)CC2)c(O)c2ncccc12`, the Ratio falls from 1.123 to 0.9844.

Compared with `CN1C=C(c2ccc3ccccc3n2)C(c2c[nH]c3ccccc23)c2ccccc21` (configuration not stated), `Oc1c(C(Nc2ccccn2)c2cccc(Oc3ccccc3)c2)ccc2cccnc12` (configuration not stated) is lower in Ratio: 1.295 for the first, 0.7317 for the second.

Going from `CCc1ccc(CNCC(O)c2ccccc2)cc1.Cl` (configuration not stated) to `CCCCCCC(O)(c1ccc(F)cc1)C(CN1CCOCC1)c1ccccc1.Cl` (configuration not stated), the Ratio falls from 1.061 to 0.9077.

Compared with `Br.CCn1c2c(c(=N)c3c1CCC3)CCCC2`, `CCCCc1c(CCC)c(=N)c2ccccc2n1C.I` is lower in Ratio: 0.8374 for the first, 0.7821 for the second.

Compared with `Cc1ccc2c(C)nc(Nc3nc(C)cc(-c4ccccc4)n3)nc2c1`, `COc1cc(OC)cc(N2C(=O)N(Cc3ccc(C(C)(C)C)cc3)c3ccccc3S2(=O)=O)c1` is higher in Ratio: 0.8649 for the first, 0.9143 for the second.

First: Cc1cccc(N2C(=O)C3C(C2=O)C2(c4ccccc4)C(=O)C3(c3ccccc3)C(c3ccc4c(c3)OCO4)=C2c2ccc3c(c2)OCO3)c1 (configuration not stated)
Second: COc1cc2c3cc1Oc1c(OC)c(OC)cc4c1C(Cc1ccc(O)c(c1)Oc1ccc(cc1)CC3N(C)CC2)N(C)CC4.Cl (configuration not stated)
The Ratio of the first is higher: 0.9857 for the first, 0.95 for the second.

Going from `CCOc1c(Br)cc(C2C(C(=O)OC)=CN(C)C=C2C(=O)OC)cc1OC` to `CCOC(=O)C1=CN(C)C=C(C(=O)OCC)C1c1cc(Br)c(OCC)c(OC)c1`, the Ratio rises from 1.02 to 1.052.

First: CC1CC2=C(CC1CNCCCN(C)C)C(C)(C)CCC2 (configuration not stated)
Second: CN(C)c1ccc(N=Cc2ccc(N3CCOCC3)cc2)cc1
The Ratio of the first is lower: 0.931 for the first, 0.9558 for the second.
